According to patent US20220257767A1, “IONIC LIQUIDS FOR DRUG DELIVERY” (PRESIDENT AND FELLOWS OF HARVARD COLLEGE, priority 2019, published 2022):
Converted amounts (≈) assume the structure as drawn. “Also recorded” adds a separate entry of the source.

Test system: porcine skin
Experiment: not given
Conditions: not given
For “Choline geranate [CAGE] [listing 1 of 2 here]”, the “Acarbose: Rank” value was 2, the “Average Rank” value was 5 and the “Ruxolitinib: Rank” value was 8. In the case of “Choline geranate [CAGE] [listing 2 of 2 here]”, the “Acarbose: Rank” value is reported as 1, the “Average Rank” value is reported as 1 and the “Ruxolitinib: Rank” value is reported as 3. For the same molecule, the “delivery/transport of acarbose into skin (in words)” value was “highest delivery efficacy” and the “delivery/transport of ruxolitinib into skin (in words)” value was “highest delivery efficacy”.

Test system: porcine skin
Experiment: Skin penetration studies using porcine skin in Franz diffusion cells, drug quantified by HPLC
Conditions: 24 h, listed as pure geranic acid
Text: Skin Penetration Studies. The skin penetration studies were undertaken using porcine skin in Franz diffusion cells, as described in full previously (skin area=1.7 cm^2). […] Briefly, thawed, washed porcine skin was placed in a diffusion cell with the SC facing upwards. The acceptor component of the cell was filled with PBS and equipped with a magnetic stirrer bar. Only cells with a measured trans-epidermal current less than 12 μA were used in the study and the treatments were randomly assigned. 300 μL of drug solution in each IL (1 mg/mL) was placed on top of the skin, ensuring full coverage. The cell was placed on a stirrer plate at 37° C. for 24 hours, at which point the skin was removed and the surface was washed gently with PBS. Each skin layer was then separated. The stratum corneum was removed by tape stripping (up to ten layers), the epidermis was separated from the dermis with a scalpel, and a 4 mm punch was used thrice to remove a third of the dermis (by area).
HPLC Analysis. The analysis of the amount of drug present in each layer was determined by HPLC. […] For ruxolitinib, an Inertsil ODS C-18 column with 250×4.6 mm internal diameter and 5μm particle size was employed.
For `CC(C)=CCC/C(C)=C/C(=O)O` [Geranic Acid], the “delivery/transport of acarbose into skin (in words)” value was “no significant transport; also recorded: did not yield a noticeable skin flux” and the “delivery/transport of ruxolitinib into skin (in words)” value was “no significant transport; also recorded: did not yield a noticeable skin flux”.

Test system: not given
Experiment: not given
Conditions: exemplary anions, Table 5; cited from earlier work
For `CN(C)CCO` [2-(dimethylamino)ethanol], the pKa is given as 9.3. In the case of `CCCCC(CC)COS(=O)(=O)[O-].[Na+]` (stereo not drawn) [2-ethylhexyl sulfate], the LogP is given as 3.10. In the case of `CCCCCCC(O)C(=O)O` (stereo not drawn) [2-hydroxyoctanoic acid], the LogP is listed as 1.8 and the pKa is listed as 4.42. In the case of `CC(C)C(=O)O` [2-methylpropanoic acid], the LogP is listed as 0.73. In the case of `CCC(O)CCCCCCC(=O)O` (stereo not drawn) [8-hydroxycapric acid], the LogP is given as 2.2. For `COc1cc(/C=C/C(=O)O)ccc1O` [(E)-3-(4-hydroxy-3-methoxy-phenyl)prop-2-enoic acid], the pKa is given as 4.42. For `O=C(O)CCCC[C@@H]1CCSS1` [(R)-5-(1,2-dithiolan-3-yl)pentanoic acid], the pKa is listed as 5.10. In the case of `CC(C)=CCCC(C)CC(=O)O` (stereo not drawn) [Citronellic Acid, 3,7-dimethyl-6-octenoic acid], the LogP is given as 2.8 and the pKa is given as 5.19. In the case of `CC(C)=CCC/C(C)=C/C(=O)O` [Geranic Acid], the LogP is listed as 2.72 and the pKa is listed as 5.26. In the case of `O=C(O)CCCC(=O)O` [Glutaric Acid], the LogP is given as −0.29 and the pKa is given as 4.34. In the case of `O=C(O)C(O)c1ccccc1` (stereo not drawn) [Hydroxyl(phenyl)acetic acid], the LogP is listed as 1.2 and the pKa is listed as 3.41. In the case of `O=C(O)CCCCCCCC(=O)O` [Nonanedioic Acid], the pKa is given as 4.55. For `CCCCCCCC(=O)O` [Octanoic Acid], the LogP is given as 3.01 and the pKa is given as 4.895. In the case of `CCCCC/C=C/C(=O)O` [Octenoic Acid, trans-2-octenoic acid], the LogP is given as 2.9 and the pKa is given as 5.05. In the case of `O=C(O)c1ccccc1O` [Salicylic Acid], the LogP is listed as 2.2. For Decenoic Acid, the LogP is given as 4.02 and the pKa is given as 5.03. In the case of Hexenoic Acid, the LogP is given as 1.8 and the pKa is given as 5.13.

Test system: not listed separately
Experiment: Solubility of the model drugs in PBS and in CAGE variants
Type: physicochemical
Conditions: PBS, aqueous buffer
For `C[C@H]1O[C@H](O[C@H]2[C@H](O)[C@@H](O)[C@@H](O[C@H]3[C@H](O)[C@@H](O)C(O)O[C@@H]3CO)O[C@@H]2CO)[C@H](O)[C@@H](O)[C@@H]1N[C@H]1C=C(CO)[C@@H](O)[C@H](O)[C@H]1O` (stereo partly drawn) [Acarbose, acarbose], the solubility was ≥ 1000 µg/mL. `N#CC[C@H](C1CCCC1)n1cc(-c2ncnc3[nH]ccc23)cn1` [ruxolitinib] gave a solubility of 200 µg/mL (≈ 653 µM).

Test system: not given
Experiment: not given
Conditions: model drugs; cited from earlier work
For `N#CC[C@H](C1CCCC1)n1cc(-c2ncnc3[nH]ccc23)cn1` [ruxolitinib], the “Log P” value is given as 2.9.
